The values below come from patent US10112899B2 (ViiV HEALTHCARE UK LIMITED, priority 2014, dated 2018).

The subject of this test is HIV in the HTLV-1 transformed cell line MT-4. In words: organism not typed. The class given is cell-based. As to conditions: MT4, 96 h, MT-4 cells; luciferase/cell titer glo readout after 96 hours; 10 point dose response.

A word on the IC50: it is the point on the concentration scale where inhibition reaches its midpoint. Lower therefore signals inhibition by little substance. `COc1c(F)cccc1C(=O)N1Cc2c(C)c(-c3cc(F)c4c(c3C)CCCO4)c([C@H](OC(C)(C)C)C(=O)O)c(C)c2C1` (atropisomer, axis not shown; (M)) [Example 195, (S)-2-(tert-butoxy)-2-((M)-2-(3-fluoro-2-methoxybenzoyl)-6-(8-fluoro-5-methylchroman-6-yl)-4,7-dimethylisoindolin-5-yl)acetic acid] returned an IC50 of 3 nM. `Cc1c(-c2c(C)c3c(c(C)c2[C@H](OC(C)(C)C)C(=O)O)CN(C(=O)N2CCC(C)(C)CC2)C3)cc(F)c2c1CCCO2` (atropisomer, axis not shown; (M)) [Example 211, (S)-2-(tert-butoxy)-2-((M)-2-(4,4-dimethylpiperidine-1-carbonyl)-6-(8-fluoro-5-methylchroman-6-yl)-4,7-dimethylisoindolin-5-yl)acetic acid] registered an IC50 of 5 nM. With `Cc1c(-c2c(C)c3c(c(C)c2[C@H](OC(C)(C)C)C(=O)O)CN(C(=O)c2cccc4ccoc24)C3)cc(F)c2c1CCCO2` (atropisomer, axis not shown; (M)) [Example 169, (S)-2-((M)-2-(benzofuran-7-carbonyl)-6-(8-fluoro-5-methylchroman-6-yl)-4,7-dimethylisoindolin-5-yl)-2-(tert-butoxy)acetic acid] the figure was 2 nM.

The compound `Cc1cc(C(=O)N2Cc3c(C)c(-c4cc(F)c5c(c4C)CCCO5)c([C@H](OC(C)(C)C)C(=O)O)c(C)c3C2)ccc1F` (atropisomer, axis not shown; (M)) [Example 145, (S)-2-(tert-butoxy)-2-((M)-2-(4-fluoro-3-methylbenzoyl)-6-(8-fluoro-5-methylchroman-6-yl)-4,7-dimethylisoindolin-5-yl)acetic acid] registered an IC50 of 2 nM. With `Cc1ccc(-c2c(C)c3c(c(C)c2[C@H](OC(C)(C)C)C(=O)O)CN(Cc2nc(C)c[nH]2)C3)cc1` [Example 23, (S)-2-(tert-butoxy)-2-(4,7-dimethyl-2-((4-methyl-1H-imidazol-2-yl)methyl)-6-(p-tolyl)isoindolin-5-yl)acetic acid], the IC50 was found to be 203 nM. In turn, `Cc1ccc(-c2c(C)c3c(c(C)c2[C@H](OC(C)(C)C)C(=O)O)CN(C(=O)c2cc(F)c(Cl)c(Cl)c2)C3)cc1` [Example 277, (S)-2-(tert-butoxy)-2-(2-(3,4-dichloro-5-fluorobenzoyl)-4,7-dimethyl-6-(p-tolyl)isoindolin-5-yl)acetic acid] registered an IC50 of 14 nM. For `Cc1c2c(c(C)c([C@H](OC(C)(C)C)C(=O)O)c1-c1ccc(Cl)cc1)CN(C(=O)c1cccc3c1OCO3)C2` [Example 308, (S)-2-(2-(benzo[d][1,3]dioxole-4-carbonyl)-6-(4-chlorophenyl)-4,7-dimethylisoindolin-5-yl)-2-(tert-butoxy)acetic acid], the IC50 stood at 4 nM. Against the preceding compound, the IC50 is about 3.5-fold lower. With `Cc1c(-c2c(C)c3c(c(C)c2[C@H](OC(C)(C)C)C(=O)O)CN(C(=O)c2ccccc2C(C)(C)C)C3)cc(F)c2c1CCCO2` (atropisomer, axis not shown; (M)) [Example 155, (S)-2-(tert-butoxy)-2-(2-(2-(tert-butyl)benzoyl)-6-((M)-8-fluoro-5-methylchroman-6-yl)-4,7-dimethylisoindolin-5-yl)acetic acid], the IC50 was determined as 48 nM.

In the case of `Cc1ccc(-c2c(C)c3c(c(C)c2[C@H](OC(C)(C)C)C(=O)O)CN(Cc2ccc(C(F)(F)F)cc2)C3)cc1` [Example 27, (S)-2-(tert-butoxy)-2-(4,7-dimethyl-6-(p-tolyl)-2-(4-(trifluoromethyl)benzyl)isoindolin-5-yl)acetic acid], the IC50 worked out at 932 nM. With `Cc1c2c(c(C)c([C@H](OC(C)(C)C)C(=O)O)c1-c1ccc(Cl)cc1)CN(C(=O)C1CCCCC1)C2` [Example 134, (S)-2-(tert-butoxy)-2-(6-(4-chlorophenyl)-2-(cyclohexanecarbonyl)-4,7-dimethylisoindolin-5-yl)acetic acid], the IC50 was 6 nM. Against the preceding compound, the IC50 is about 160-fold lower. `Cc1cccc(C(=O)N2Cc3c(C)c(-c4cc(F)c5c(c4C)CCCO5)c([C@H](OC(C)(C)C)C(=O)O)c(C)c3C2)c1C` (atropisomer, axis not shown; (M)) [Example 193, (S)-2-(tert-butoxy)-2-((M)-2-(2,3-dimethylbenzoyl)-6-(8-fluoro-5-methylchroman-6-yl)-4,7-dimethylisoindolin-5-yl)acetic acid] showed an IC50 of 5 nM. Turning to `COc1ccc(F)c(C(=O)N2Cc3c(C)c(-c4ccc(C)cc4)c([C@H](OC(C)(C)C)C(=O)O)c(C)c3C2)c1` [Example 248, (S)-2-(tert-butoxy)-2-(2-(2-fluoro-5-methoxybenzoyl)-4,7-dimethyl-6-(p-tolyl)isoindolin-5-yl)acetic acid], half-maximal inhibition (IC50) required 5 nM. The compound `Cc1ccc(-c2c(C)c3c(c(C)c2[C@H](OC(C)(C)C)C(=O)O)CN(C(=O)C(=O)N2CCOC[C@H]2C)C3)cc1` [Example 130, (S)-2-(tert-butoxy)-2-(4,7-dimethyl-2-(2-((R)-3-methylmorpholino)-2-oxoacetyl)-6-(p-tolyl)isoindolin-5-yl)acetic acid] yielded an IC50 of 41 nM. This IC50 lies about 8.2-fold higher than the previous one.

For the compound `Cc1ccc(-c2c(C)c3c(c(C)c2[C@H](OC(C)(C)C)C(=O)O)CN(C(=O)c2ccc(Cl)c(Cl)c2)C3)cc1` [Example 276, (S)-2-(tert-butoxy)-2-(2-(3,4-dichlorobenzoyl)-4,7-dimethyl-6-(p-tolyl)isoindolin-5-yl)acetic acid], the midpoint of inhibition, the IC50, lay at 16 nM. Against the preceding compound, the IC50 is about 2.6-fold lower.

`Cc1ccc(-c2c(C)c3c(c(C)c2[C@H](OC(C)(C)C)C(=O)O)CN(C(=O)c2cc(F)cc(C(=O)O)c2)C3)cc1` [Example 267, (S)-3-(5-(tert-butoxy(carboxy)methyl)-4,7-dimethyl-6-(p-tolyl)isoindoline-2-carbonyl)-5-fluorobenzoic acid] yielded an IC50 of 3460 nM.

As to `Cc1ccc(-c2c(C)c3c(c(C)c2[C@H](OC(C)(C)C)C(=O)O)CN(Cc2ccc(F)cc2)C3)cc1` [Example 2, (S)-2-(tert-Butoxy)-2-(2-(4-fluorobenzyl)-4,7-dimethyl-6-(p-tolyl)isoindolin-5-yl)acetic acid], the IC50 came out at 36 nM. With `COc1cccc(C(=O)N2Cc3c(C)c(-c4cc(F)c5c(c4C)CCCO5)c([C@H](OC(C)(C)C)C(=O)O)c(C)c3C2)c1C` (atropisomer, axis not shown; (M)) [Example 139, (S)-2-(tert-butoxy)-2-((M)-6-(8-fluoro-5-methylchroman-6-yl)-2-(3-methoxy-2-methylbenzoyl)-4,7-dimethylisoindolin-5-yl)acetic acid], the IC50 came out at 37 nM.

Take `Cc1ccc(-c2c(C)c3c(c(C)c2[C@H](OC(C)(C)C)C(=O)O)CN(C(=O)N2CCC(F)(F)CC2)C3)cc1` [Example 92, (S)-2-(tert-butoxy)-2-(2-(4,4-difluoropiperidine-1-carbonyl)-4,7-dimethyl-6-(p-tolyl)isoindolin-5-yl)acetic acid]: the IC50 stood at 16 nM. As for `Cc1ccc(-c2c(C)c3c(c(C)c2[C@H](OC(C)(C)C)C(=O)O)CN(S(=O)(=O)N2CCC(F)(F)C2)C3)cc1` [Example 289, (S)-2-(tert-butoxy)-2-(2-((3,3-difluoropyrrolidin-1-yl)sulfonyl)-4,7-dimethyl-6-(p-tolyl)isoindolin-5-yl)acetic acid], the IC50 worked out at 14 nM. `Cc1ccc(C(=O)N2Cc3c(C)c(-c4cc(F)c5c(c4C)CCCO5)c([C@H](OC(C)(C)C)C(=O)O)c(C)c3C2)cc1F` (atropisomer, axis not shown; (M)) [Example 144, (S)-2-(tert-butoxy)-2-((M)-2-(3-fluoro-4-methylbenzoyl)-6-(8-fluoro-5-methylchroman-6-yl)-4,7-dimethylisoindolin-5-yl)acetic acid] registered an IC50 of 5 nM. On to `Cc1ccc(-c2c(C)c3c(c(C)c2C(OC(C)(C)C)C(=O)O)CN(C(=O)OCc2ccccc2)C3)cc1` (stereo not drawn) [Example 17, 2-(2-((Benzyloxy)carbonyl)-4,7-dimethyl-6-(p-tolyl)isoindolin-5-yl)-2-(tert-butoxy)acetic acid], for which the IC50 stood at 1280 nM. `Cc1c(-c2c(C)c3c(c(C)c2[C@H](OC(C)(C)C)C(=O)O)CN(C(=O)c2cccc4c2CCC4)C3)cc(F)c2c1CCCO2` (atropisomer, axis not shown; (M)) [Example 161, (S)-2-(tert-butoxy)-2-(2-(2,3-dihydro-1H-indene-4-carbonyl)-6-((M)-8-fluoro-5-methylchroman-6-yl)-4,7-dimethylisoindolin-5-yl)acetic acid] showed a concentration for half-maximal inhibition (IC50) of 3 nM. Regarding `Cc1ccc(-c2c(C)c3c(c(C)c2[C@H](OC(C)(C)C)C(=O)O)CN(C2CCC(C)(C)CC2)C3)cc1` [Example 14, (S)-2-(tert-Butoxy)-2-(2-(4,4-dimethylcyclohexyl)-4,7-dimethyl-6-(p-tolyl)isoindolin-5-yl)acetic acid], inhibition was half-maximal at 118 nM (IC50). Consider `Cc1ccc(-c2c(C)c3c(c(C)c2[C@H](OC(C)(C)C)C(=O)O)CN(C(=S)N2CCCCC2)C3)cc1` [Example 131, (S)-2-(tert-butoxy)-2-(4,7-dimethyl-2-(piperidine-1-carbonothioyl)-6-(p-tolyl)isoindolin-5-yl)acetic acid], for which the IC50 was found to be 19 nM. In the case of `Cc1ccc(-c2c(C)c3c(c(C)c2[C@H](OC(C)(C)C)C(=O)O)CN(C(=O)c2ccc(C)c(F)c2)C3)cc1` [Example 115, (S)-2-(tert-butoxy)-2-(2-(3-fluoro-4-methylbenzoyl)-4,7-dimethyl-6-(p-tolyl)isoindolin-5-yl)acetic acid] it was 6 nM; in that of `Cc1ccc(-c2c(C)c3c(c(C)c2[C@H](OC(C)(C)C)C(=O)O)CN(C(=O)N2CC4CCC(C2)O4)C3)cc1` [Example 75, (2S)-2-(tert-butoxy)-2-[4,7-dimethyl-6-(4-methylphenyl)-2-{8-oxa-3-azabicyclo[3.2.1]octane-3-carbonyl}-2,3-dihydro-1H-isoindol-5-yl]acetic acid], 34 nM; in that of `Cc1ccc(-c2c(C)c3c(c(C)c2[C@H](OC(C)(C)C)C(=O)O)CN(C(=O)c2cc(Cl)c(F)c(Cl)c2)C3)cc1` [Example 281, (S)-2-(tert-butoxy)-2-(2-(3,5-dichloro-4-fluorobenzoyl)-4,7-dimethyl-6-(p-tolyl)isoindolin-5-yl)acetic acid], 17 nM.
